The subject of assay [1] is K562 cells. Description: Erythroid differentiation assay in K562 cells (hemin; hemoglobin accumulation, western blot). Format: cell-based, human. The procedure:
FIG. 1. ZAKα/P38 signaling pathway is activated in K562 after erythroid differentiation and its inhibition facilitates terminal erythroid differentiation. K562 cells were pre-treated with 0.1 μM nilotinib (Nil) (A, C, D), 1 μM anisomycin (B) and/or the indicated concentrations of the […] CX-5461 for 24 h, and then differentiated with 50 μM hemin for another 24 h. Hemoglobin accumulation (A, B, D) and NLRP1, phosphorylated P38, GATA1, ZAKα and ACTB (A-C) amounts were then evaluated by western blot. Immunoblots are representative of 3 independent experiments. #1, ACTB; #2, GATA1.
FIG. 2. The ZAKα/P38 signaling pathways is activated in K562 after erythroid differentiation. K562 cells were pre-treated with 0.1 μM nilotinib for 24 h and then differentiated with 50 μM hemin for the indicated times. The amounts of NLRP1, GATA1, phosphorylated P38, total ZAKα, phosphorylated ZAKα (Phos-tag) and ACTB were then evaluated by western blot.
FIG. 10. Imatinib and dasatinib promote erythropoiesis in human and zebrafish. (A) K562 cells were pretreated with the indicated concentrations of nilotinib, imatinib or dasatinib for 24 h and then differentiated with 50 μM hemin for 24 h. The amounts of NLRP1, GATA1, phosphorylated P38, total ZAKα and ACTB were then evaluated by western blot. (B) Zebrafish larvae were treated from 1 to 2 dpf with the indicated concentrations of nilotinib, imatinib or dasatinib. Representative images and number of neutrophils in larvae of 2 dpf treated by bath immersion with the indicated concentrations of imatinib and dasatinib. Each dot represents one individual and the mean±SEM for each group is also shown. P values were calculated by one-way ANOVA and Tukey's multiple range test. n.s., non-significant. ***P<0.001; ****P<0.0001.
FIG. 11. Ponatinib and bosutinib promote erythropoiesis in human and zebrafish. (A) K562 cells were pretreated with the indicated concentrations of nilotinib, ponatinib and bosutinib for 24 h and then differentiated with 50 μM hemin for the indicated times. The amounts of NLRP1, total ZAKα, GATA1, phosphorylated P38 and ACTB were then evaluated by western blot. (B) Number of neutrophils in larvae of 2 dpf treated by bath immersion with the indicated concentrations of ponatinib and bosutinib. Each dot represents one individual and the mean±SEM for each group is also shown. P values were calculated by one-way ANOVA and Tukey's multiple range test. n.s., non-significant, *P<0.05. **P<0.01. ***P<0.001.
K562 cells (CRL-3343; American Type Culture Collection) were maintained in RPMI culture medium supplemented with 10% fetal calf serum (FCS), 2 mM Glutamine, and 1% penicillin-streptomycin (Life Technologies). Cells were maintained and subcultured before confluence every 72 h. For differentiation, cells were treated with 50 μM hemin (#16009-13-5, Sigma-Aldrich) in the presence of 0.1% DMSO alone or with the caspase-1 inhibitor VX-765 (100 μM), the tyrosine kinase inhibitor nilotinib (0.1 μM), the RNA polymerase I inhibitor CX-5461 (200 nM, 1 μM and 10 μM) (all from MedChemExpress). Cells were collected at different time points (0, 24, 48 hours post-hemin addition), centrifuged, washed twice with PBS, and stored at −80° C. for further analysis.
Cells were lysed in 50 mM Tris-HCl (pH 7.5), 150 mM NaCl, 1% (w/v) NP-40 and fresh protease inhibitor (1/20, #P8340, Sigma-Aldrich). Protein quantification was performed with the BCA kit using BSA as standard. Cell lysates ([…]) in SDS sample buffer were subjected to electrophoresis on a polyacrylamide gel and transferred to nitrocellulose membranes. The membranes were incubated for 1 h with TTBS containing 5% (w/v) skimmed dried milk powder or 2% (w/v) BSA. The membranes were immunoblotted in the same buffer 16 h at 4° C. with the different primary antibodies diluted 1/1000. The blots were then washed with TTBS and incubated for 1 h at room temperature with secondary HRP-conjugated antibodies diluted 2,500-fold in 5% (w/v) skimmed milk in TTBS. […]
For orientation: Immunoblotting shows a protein as a band on a membrane.

Assay [2] concerns bone marrow mononuclear cells of a DBA patient with a RPS19 mutation. As to the kind of experiment: Colony assay of BMMCs from a DBA patient in methylcellulose medium. The conditions noted are these: 2 weeks. Type of assay: cell-based, human. The procedure: FIG. 6. NLRP1 is activated by phosphorylation of the linker domain after activation of ZAKα and pharmacological inhibition of this signaling pathway promotes erythropoiesis in DBA. (A-D) Number of neutrophils (A-C), and caspase-1 activity (D) in 2 dpf larvae obtained by injection of one-cell stage embryos with human NLRP1 (wild type-WT, S107A and S107D) and treated from 1 to 2 dpf by bath immersion with 1 μM nilotinib (B-D). Representative images of neutrophils (arrows) are also shown in C. (E, F) BMMCs from a DBA patient were incubated for 2 weeks in human methylcellulose complete medium at 37° C. in the presence or absence of the indicated concentrations of nilotinib, and colonies were counted using standard morphological criteria. Each dot represents one individual and the mean±SEM for each group is also shown. P values were calculated by one-way ANOVA and Tukey's multiple range test. n.s., non-significant; *P<0.05; **P<0.01; ***P<0.001; ****P<0.0001.
Bone marrow aspirates were collected at the Hospital General Universitario José Maria Morales Meseguer under CEIC approval number EST: 12/16. […] BMMCs were incubated in methylcellulose medium at 37° C. in a 5% CO2-humidified atmosphere in the presence of DMSO or nilotinib (0.01 and 0.1 μM), and colonies were counted at day 9 and 14 using standard morphological criteria.

Assay [3] deals with K562 cells. Description: Transcriptomic analysis (RNA seq) and RT-qPCR of erythroid genes in K562 cells. Type of assay: cell-based, human. The procedure:
FIG. 12. Nilotinib promotes an erythroid gene expression profile in human K562 cells. K562 cells were pretreated with the indicated concentrations of 0.1 μM nilotinib, for 24 h and then differentiated with 50 μM hemin for additional 24 h. RNA was extracted and transcriptomic analysis performed by RNA seq. (A) Heatmap of selected erythroid genes. (B) Validation of nilotinib-induced erythroid genes by RT-qPCR. Each dot represents a biological replicate and the mean±SEM for each group is also shown.
A general note: In qPCR the cycle at which signal appears reflects the starting amount.

Another assay deals with ZAKα (Homo sapiens, UniProt Q9NYL2). The conditions noted are these: cited from earlier work.
ZAKα, sequence (Q9NYL2 whole entry): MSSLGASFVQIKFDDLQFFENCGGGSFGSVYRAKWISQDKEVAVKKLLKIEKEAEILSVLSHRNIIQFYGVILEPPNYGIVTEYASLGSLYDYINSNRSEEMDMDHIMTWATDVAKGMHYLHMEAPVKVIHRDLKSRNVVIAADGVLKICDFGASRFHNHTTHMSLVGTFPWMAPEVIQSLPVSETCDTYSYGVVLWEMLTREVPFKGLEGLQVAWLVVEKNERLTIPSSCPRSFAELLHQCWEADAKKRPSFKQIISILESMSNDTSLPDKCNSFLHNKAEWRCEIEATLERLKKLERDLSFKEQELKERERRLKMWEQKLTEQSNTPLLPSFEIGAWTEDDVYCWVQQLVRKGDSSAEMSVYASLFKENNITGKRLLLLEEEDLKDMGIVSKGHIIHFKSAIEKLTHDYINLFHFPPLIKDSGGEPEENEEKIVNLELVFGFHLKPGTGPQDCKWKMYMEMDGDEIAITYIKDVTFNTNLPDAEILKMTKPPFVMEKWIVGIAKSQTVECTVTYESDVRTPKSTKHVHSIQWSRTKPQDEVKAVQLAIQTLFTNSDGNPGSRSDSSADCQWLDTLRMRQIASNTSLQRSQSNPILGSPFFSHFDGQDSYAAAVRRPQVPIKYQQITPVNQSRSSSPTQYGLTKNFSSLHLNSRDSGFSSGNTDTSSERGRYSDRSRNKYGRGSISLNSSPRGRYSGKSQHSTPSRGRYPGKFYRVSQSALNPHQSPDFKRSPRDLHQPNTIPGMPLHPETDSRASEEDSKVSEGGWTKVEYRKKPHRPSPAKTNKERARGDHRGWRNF
Setting [4] is: K562 cells, 0.1 μM nilotinib 24 h, then 50 μM hemin, western blot.

Consider `Cc1cn(-c2cc(NC(=O)c3ccc(C)c(Nc4nccc(-c5cccnc5)n4)c3)cc(C(F)(F)F)c2)cn1` [nilotinib], for which, in the assay on K562 cells [1] (0.1 μM nilotinib 24 h, with or without 50 μM hemin 24 h (FIG. 1A)), the “erythroid differentiation of K562” value is given as “strongly promoted erythroid differentiation of K562, even in the absence of hemin”. In addition, in the assay on K562 cells [1] (K562 cells, 0.1 μM nilotinib 24 h, then 50 μM hemin 24 h), the haemoglobin accumulation result is listed as “increase in haemoglobin accumulation”. Further, the “hemin-induced phosphorylation of ZAKα” value in the assay on K562 cells [1] (K562 cells, 0.1 μM nilotinib 24 h, then 50 μM hemin, Phos-tag western blot) is listed as “strongly reversed”. In the assay with K562 cells [1] (setting [4]), the “hemin-induced degradation of GATA1” value was “strongly reversed” and the “hemin-induced phosphorylation of P38” value is “strongly reversed”. Also, in the assay on K562 cells [1] (K562 cells, 0.1 μM nilotinib (FIGS. 1A and 2)), the “expression of GATA1” value was “increased expression of GATA1”. Also, the “accumulation of GATA1 in the presence of CX-5461” value in the assay with K562 cells [1] (K562 cells, 0.1 μM nilotinib plus CX-5461 24 h, then 50 μM hemin 24 h (FIG. 1C)) is reported as “able to promote accumulation of GATA1”. The “abundance of ZAK alpha, phosphorylated ZAKα and P38, and NLRP1” value in the assay on K562 cells [1] (K562 cells, basal conditions, upon hemin-induced erythroid differentiation and upon anisomycin) is listed as “Alter the abundance”. Moreover, the “number of erythroid colonies” value in assay [2] (nilotinib 0.01 and 0.1 μM (FIG. 6E)) is “strongly increased”. Moreover, the “number of myeloid colonies” value in assay [2] (nilotinib 0.01 and 0.1 μM (FIG. 6F)) is “not affected”. In addition, the “transcript levels of erythroid genes (RT-qPCR)” value in the assay on K562 cells [3] (K562 cells incubated with nilotinib) is reported as “increased transcript levels”. In the assay with K562 cells [3] (K562 cells, 0.1 μM nilotinib 24 h, control cells and upon hemin 24 h, RNA seq), the “expression of erythroid genes (transcriptomic analysis)” value is given as “robustly induced”. In addition, the “affinity for ZAKα” value at ZAKα was “high affinity”.

(Values after patent US20260240846A1, “ZAK ALPHA KINASE (MAP3K20) INHIBITORS FOR USE IN THE TREATMENT OF ANEMIA” (UNIVERSIDAD DE MURCIA, priority 2023, published 2026).)
